From the NIST ThermoML archive (doi:10.1021/je700037z)
± gives the expanded uncertainty stated by the source.

Conditions: 101.33 kPa, Liquid, Pycnometric method

mass density (285 K): 1290 ± 7 kg/m3
mass density (290 K): 1286 ± 7 kg/m3
mass density (295 K): 1282 ± 7 kg/m3
mass density (300 K): 1279 ± 7 kg/m3
mass density (305 K): 1275 ± 7 kg/m3
SMILES: CCn1cc[n+](C)c1.F[B-](F)(F)F [1-ethyl-3-methylimidazolium tetrafluoroborate]
